Article PMC11435058, “Synthesis of New Thiazole-Privileged Chalcones as Tubulin Polymerization Inhibitors with Potential Anticancer Activities” (Pharmaceuticals, 2024)
Read-outs that look alike come from different tables or passages of the source.

Assays:
[1] = tested on: UACC-62; assay: NCI-60 anticancer screen (SRB; single dose and five doses); conditions: Homo sapiens, UACC-62, 48 h, read-out: Growth Percentage
[2] = tested on: SF-268; assay: as above; conditions: Homo sapiens, SF-268, 48 h, read-out: Growth Percentage
[3] = tested on: UO-31; assay: as above; conditions: Homo sapiens, UO-31, 48 h, read-out: Growth Percentage
[4] = tested on: UACC-257; assay: as above; conditions: Homo sapiens, UACC-257, 48 h, read-out: Growth Percentage
[5] = tested on: SW-620; assay: as above; conditions: Homo sapiens, SW-620, 48 h, read-out: Growth Percentage
[6] = tested on: SNB-19; assay: cells; conditions: Homo sapiens, SNB-19, 48 h, read-out: Growth Percentage
[7] = tested on: HS 578T; assay: NCI-60 anticancer screen (SRB; single dose and five doses); conditions: Homo sapiens, 48 h, read-out: Growth Percentage
[8] = tested on: MCF7; assay: as above; conditions: Homo sapiens, MCF7, 48 h, read-out: Growth Percentage
[9] = tested on: MDA-MB-231/ATCC; assay: as above; conditions: Homo sapiens, MDA-MB-231, 48 h, read-out: Growth Percentage
[10] = tested on: M14; assay: as above; conditions: Homo sapiens, M14, 48 h, read-out: Growth Percentage
[11] = tested on: MDA-MB-468; assay: as above; type: cell-based, human; conditions: Homo sapiens, 48 h; MDA-MB-468; dose of 10 μM; read-out: Growth Percentage
Experimental: The methodology of the NCI anticancer screening has been described in detail elsewhere (http://www.dtp.nci.nih.gov). For detailed information, see Appendix A in the Supplementary Materials.
4.2.1. Screening of the anticancer activity against a panel of 60 cell Lines.
The methodology of the NCI anticancer screening has been described in detail elsewhere (http://www.dtp.nci.nih.gov.) Briefly, the primary anticancer assay was performed at approximately 60 human tumor cell lines panel derived from nine neoplastic diseases, in accordance with the protocol of the Drug Evaluation Branch, National Cancer Institute, Bethesda. Tested compounds were added to the culture at a single concentration (10μM) and the cultures were incubated for 48 h. End -point determinations were made with a protein binding dye, SRB. Results for each tested compound was reported as the percent of growth of the treated cells when compared to the untreated control cells. The percentage growth was evaluated spectrophotometrically versus controls not treated with test agents. […]

[12] = tested on: OVCAR-8; assay: as above; conditions: Homo sapiens, OVCAR-8, 48 h, read-out: Growth Percentage
[13] = tested on: SK-MEL-2; assay: as above; conditions: Homo sapiens, SK-MEL-2, 48 h, read-out: Growth Percentage
[14] = tested on: MALME-3M; assay: as above; conditions: Homo sapiens, 48 h, read-out: Growth Percentage
[15] = tested on: CAKI-1; assay: as above; conditions: Homo sapiens, CAKI-1, 48 h, read-out: Growth Percentage
[16] = tested on: SK-MEL-5; assay: as above; conditions: Homo sapiens, SK-MEL-5, 48 h, read-out: Growth Percentage
[17] = tested on: MOLT-4; assay: as above; conditions: Homo sapiens, MOLT-4, 48 h, read-out: Growth Percentage
[18] = tested on: RXF 393; assay: as above; conditions: Homo sapiens, RXF 393, 48 h, read-out: Growth Percentage
[19] = tested on: SF-539; assay: as above; conditions: Homo sapiens, SF-539, 48 h, read-out: Growth Percentage
[20] = tested on: HL-60(TB); assay: as above; conditions: Homo sapiens, HL-60, 48 h, read-out: Growth Percentage
[21] = tested on: 60 human tumor cell lines panel; assay: NCI-60 anticancer screen, whole panel (means and ranges over the cell lines); type: cell-based; conditions: Homo sapiens, 48 h
[22] = tested on: IGROV1; assay: NCI-60 anticancer screen (SRB; single dose and five doses); conditions: Homo sapiens, IGROV-1, 48 h, read-out: Growth Percentage
[23] = tested on: NCI-H522; assay: as above; conditions: Homo sapiens, NCI-H522, 48 h, read-out: Growth Percentage
[24] = tested on: U251; assay: as above; conditions: Homo sapiens, U-251, 48 h, read-out: Growth Percentage
[25] = tested on: SK-OV-3; assay: as above; conditions: Homo sapiens, SK-OV-3, 48 h, read-out: Growth Percentage
[26] = mean over the tested cell lines, dose of 10 μM, read-out: Mean growth percentage
[27] = read-out: growth percentages against most of the tested cells (lowest to highest)

SMILES	activity at 10 µM [1] [%]	activity at 10 µM [2] [%]	activity at 10 µM [4] [%]	activity at 10 µM [5] [%]	activity at 10 µM [6] [%]	activity at 10 µM [7] [%]	activity at 10 µM [8] [%]	activity at 10 µM [9] [%]	activity at 10 µM [10] [%]	activity at 10 µM [11] [%]	activity at 10 µM [12] [%]	activity at 10 µM [13] [%]	activity at 10 µM [15] [%]	activity at 10 µM [16] [%]	activity at 10 µM [17] [%]	activity at 10 µM [18] [%]	activity at 10 µM [19] [%]	activity at 10 µM [20] [%]	activity at 10 µM [21, 26] [%]	activity at 10 µM [23] [%]	also measured
Cc1[nH]c(=S)sc1C(=O)/C=C/c1ccccc1 [2a, (E)-1-(4-Methyl-2-Thioxo-2,3-Dihydrothiazol-5-yl)-3-Phenylprop-2-En-1-One]	65.3	69.8	76.2	69.1	66.8	90.1	19.8	70	77.1	20.8	65.8	68.2	52.5	68.8	74.2	46.4	41.7	49.6	65	71.7	activity at 10 µM [3]: 39.3%; activity at 10 µM [14]: 87.8%; activity at 10 µM ([21]; range over the cell lines, dose of 10 μM, read-out: growth percentages against most of the tested cells (lowest to highest)): 14.1 to 129%; activity at 10 µM [22]: 81.8%; activity at 10 µM [24]: 56.9%
COc1ccc(/C=C/C(=O)c2sc(=S)[nH]c2C)c(OC)c1 [2n, (E)-3-(2,4-Dimethoxyphenyl)-1-(4-Methyl-2-Thioxo-2,3-Dihydrothiazol-5-yl)Prop-2-En-1-One]	65.2	89.7	84.4	84.9	77.4	89.5	46	98.7	75.8	19.2	81.5	64.7	82.8	37.8	72.3	68.9	87.3	55.8	75.1	73.5	activity at 10 µM [25]: 101%; activity at 10 µM [21, 27]: 19.2 to 123%; activity at 10 µM [24]: 68.6%
COc1ccc(/C=C/C(=O)c2sc(=S)[nH]c2C)cc1 [2l, (E)-3-(4-Methoxyphenyl)-1-(4-Methyl-2-Thioxo-2,3-Dihydrothiazol-5-yl)Prop-2-En-1-One]	71.8	81	68	75.3	75.6	96.5	30.8	89.3	87.5	15.1	76.9	80.3	59	55.9	81.5	77.5	69.8	58.5	74.6	61.4	activity at 10 µM [3]: 49%; activity at 10 µM [14]: 90%; activity at 10 µM [21, 27]: 15.1 to 120%; activity at 10 µM [22]: 89.1%; activity at 10 µM [24]: 62.3%
